Reference: patent US8895624B2, “Treatment of osteoporosis” (Haoma Medica Ltd., priority 2009, dated 2014)

Columns and labels:
[1] = tested on: osteoblast-like MG63 cells; assay: Viability of MG63 cells by uptake of 3H labelled Thymine in the formation of DNA; format: cell-based, human; conditions: concentrations 10^−8M to 10^−5M, compared with control samples
[2] = tested on: cultured cell lines derived from skin and liver; assay: Cell toxicity in cultured cell lines derived from skin and liver; format: cell-based
[3] = tested on: bone loss induced by oviarectomy; assay: Oviarectomized (oestrogen deficient) mouse model of osteoporosis, tibial μCT; format: in vivo, C57Black mice; conditions: OVx mice, 15 μg/mouse/day intraperitoneally, 5 weeks
Source text: The most widely accepted animal model of osteoporosis is the oestrogen deficient rodent, with this model the effect of the present invention has been tested in vivo. All procedures were done under Home Office licence and full local ethical requirements. C57Black mice were randomly assigned to receive total bi-lateral oviarectomy or sham operation. The oviarectomized animals were randomly assigned for treatment or to an untreated control group. At operation eight animals were in each group. • The mice were housed under standard animal house conditions with 12 hour light dark cycles in temperature and humidity controlled conditions for 5 weeks. The Sham and control oviarectomized mice received 10% ethanol in saline vehicle injections intraperitoneally once per day. The NaQuinate treated mice received a single injection (15 μg/mouse/day) administered in 10% ethanol in saline injections intraperitoneally. All mice received the same volume of test sample and this complied with Home Office regulations. • After 5 weeks treatment the animals were sacrificed by a Schedule 1 method and the tibiae removed for X-ray micro-Computer Tomography (μCT) imaging analyses.

[4] = tested on: bone loss in neurectomized limbs; assay: Disuse osteoporosis induced by sciatic neurectomy, tibial μCT; format: in vivo, mice
Protocol: Disuse osteoporosis was induced by right side sciatic neurectomy (SN). Mice were anaesthetized with oxygen and halothane and SN was achieved by resecting a 3-4 mm segment of the sciatic nerve posterior to the hip joint. On the 4th day after surgery mice were treated with either; control or NaQuinate for 5 days/week for 2 weeks. The tibias of both limbs were analysed by micro computerized tomography (μCT).

[5] = tested on: interleukin-6 release from MG63 osteoblast-like cells; assay: Inhibition of E. coli LPS-stimulated interleukin-6 release from cultured MG63 osteoblast-like cells; format: cell-based, human; conditions: E. coli LPS 25 ng/ml
Source text: 1. There are numerous factors that regulate bone physiology. Targeting the agents that induce bone resorption by recruiting/activating the cells that induce bone loss (the osteoclasts) has had limited exposure/efficacy. Most current therapies target the osteoclasts once they have been recruited or activated. A family of locally (bone) produced proteins called cytokines can induce a range of stimuli that can affect osteoclast number/activity. One of these cytokines is called interleukin-6 (IL-6). IL-6 is released by many cell types, including the bone forming cells (osteoblasts), following challenge from a range of agonists. These agonists can be physiological (1,25(OH)2 vitamin D3, interleukin-1β) or pathophysiological (interleukin-1β; bacterial endotoxin). • In vitro studies focussed on an immortalised osteoblast-like cell line called MG63 that was derived from a human osteosarcoma (bone cancer). These cells were cultured and screened for their ability to synthesize and release a range of cytokines including IL-6. Due to the well described activities of IL-6 induced bone loss this cytokine was focussed upon (see Manolagas S. C., Ann N Y Acad. Sci. 1998 May 1; 840:194-204). […] IL-6 can be measured by commercial immunoassays, for example, the QuantiGlo IL-6 Immunoassay from R&D systems.

[6] = neurectomized limbs, treated 5 days/week for 2 weeks
[7] = normal (non-neurectomized) bone

| SMILES | DNA synthesis (3H-Thymine incorporation) of MG63 cells [1] | cell toxicity [2] | percentage bone content (bone volume) in the trabecular compartment [3] | trabecular number, tibial trabecular compartment [3] | bone loss assessed by % bone volume [4, 6] | bone loss assessed by trabecular number [4, 6] | normal bone trabecular number [4, 7] | normal bone volume [4, 7] | inhibition of LPS-stimulated interleukin-6 release (in words) [5] |
| --- | --- | --- | --- | --- | --- | --- | --- | --- | --- |
| CC1=C(C/C=C(\C)CCC(=O)O)C(=O)c2ccccc2C1=O [NaQuinate (VIII), (4E)-6-(1,4-dihydro-2-methyl-1,4-dioxonaphthalen-3-yl)-4-methylhex-4-enoic acid] | continue normal DNA synthesis under all concentrations tested | lack of cell toxicity | completely attenuated the bone loss | completely attenuated the bone loss | inhibits bone loss in neurectomized limbs | inhibits bone loss in neurectomized limbs | does not alter normal bone trabecular number | does not alter normal bone volume |  |
| CC1=C(CCCCCCCC(=O)O)C(=O)c2ccccc2C1=O [XV, 8-(1,4-dihydro-2-methyl-1,4-dioxonaphthalen-3-yl)octanoic acid] |  |  |  |  |  |  |  |  | completely inactive |
| CC1=C(C/C=C(\C)C(=O)O)C(=O)c2ccccc2C1=O [KCAT-5C (XIV), (2E)-4-(1,4-dihydro-2-methyl-1,4-dioxonaphthalen-3-yl)-2-methylbut-2-enoic acid] |  |  |  |  |  |  |  |  | only active inhibiting Interleukin-6 from cultured MG63 osteoblast-like cells at very high concentrations (10^−5 M) |
